Reference: US11534457B2, “Use of dextran sulfate” (priority 2017, dated 2022)
Entries after “also recorded” stand apart in the source; their conditions may differ. Marks after values point to notes of the source that are not given here.

What was measured:
[1] = test system: HDF3CGF system [HDFn+(IL-1β, TNFα, IFNγ, EGF, bFGF and PDGF-BB)]; test: BioMAP HDF3CGF system; format: cell-based, Human
Excerpt: In this study LMW-DS was characterized by profiling in the BioMAP® Diversity PLUS panel. The BioMAP® panel consists of human primary cell-based systems designed to model different aspects of the human body in an in vitro format. The 12 systems in the BioMAP® Diversity PLUS panel (Table 32) allow test agent characterization in an unbiased way across a broad set of systems modeling various human disease states. The BioMA®P systems are constructed with one or more primary cell types from healthy human donors, with stimuli, such as cytokines or growth factors, added to capture relevant signaling networks that naturally occur in human tissue or pathological conditions. Vascular biology is modeled in both a Th1 (3C system) and a Th2 (4H system) inflammatory environment, as well as in a Th1 inflammatory state specific to arterial smooth muscle cells (CASM3C system). […]
Systems are derived from either single cell types or co-culture systems. […] Test agents prepared in either DMSO (small molecules; final concentration 0.1%) or PBS (biologics) are added at the indicated concentrations 1-hr before stimulation, and remain in culture for 24-hrs or as otherwise indicated (48-hrs, MyoF system; 72-hrs, BT system (soluble readouts); 168-hrs, BT system (secreted IgG)). […] Soluble factors from supernatants are quantified using either HTRF® detection, bead-based multiplex immunoassay or capture ELISA. Overt adverse effects of test agents on cell proliferation and viability (cytotoxicity) are detected by sulforhodamine B (SRB) staining, for adherent cells, and alamarBlue® reduction for cells in suspension. For proliferation assays, individual cell types are cultured at subconfluence and measured at time points optimized for each system (48-hrs: 3C and CASM3C systems; 72-hrs: BT and HDF3CGF systems; 96-hrs: SAg system). […]

[2] = test system: severe traumatic brain injury (sTBI); test: sTBI in rats, HPLC of free amino acids and amino group containing compounds in brain (Example 3); format: in vivo, Male Wistar rats
[3] = Acute phase 1: 15 mg/kg s.c. 30 min post-sTBI, sacrifice 2 days
[4] = Acute phase 2: 15 mg/kg s.c. 30 min post-sTBI, sacrifice 7 days
[5] = Chronic phase: 15 mg/kg s.c. 3 days post-sTBI, sacrifice 7 days

“low molecular weight dextran sulfate [LMW-DS]” was tested, and the Decreased biomarker activity ([1]; HDF3CGF system) was “VCAM-1, IP-10,; also recorded: ITAC, MIG, M-CSF”, the Increased biomarker activity ([1]; HDF3CGF system) was “EGFR, MMP-1,; also recorded: PAI-1” and the “key inflammation biomarkers including MIG, VCAM, IP-10 and ITAC” value ([1]; all tested concentrations) was “decreased over all tested concentrations”. The “compounds of the methyl cycle (Met, L-Cystat, SAH)” value ([2]; 15 mg/kg s.c.) was “significant beneficial effects”, the “sTBI-induced increase in brain glutamate (GLU)” value ([2]; 15 mg/kg s.c. 30 min after sTBI) was “remarkable inhibition” and the “brain glutamate (excitotoxicity marker)” value ([2]; 15 mg/kg s.c. injected 3 days after sTBI) was “no efficacy”. For the same substance, the “ALA, cerebral concentration” value [2, 3] was 0.50 ± 0.12^a μmol/g (w.w.), the “ARG, cerebral concentration” value [2, 3] was 0.13 ± 0.02^b,d μmol/g (w.w.) and the “ASN, cerebral concentration” value [2, 3] was 0.12 ± 0.02^i μmol/g (w.w.). For the same substance, the “ASP, cerebral concentration” value [2, 3] was 2.40 ± 0.56^d,i μmol/g (w.w.), the “CITR, cerebral concentration” value [2, 3] was 0.018 ± 0.004 µmol/g (w.w.) and the “GABA, cerebral concentration” value [2, 3] was 1.43 ± 0.25^a μmol/g (w.w.). For the same substance, the “GLN, cerebral concentration” value [2, 3] was 4.78 ± 1.09^a μmol/g (w.w.), the “GLU, cerebral concentration” value [2, 3] was 9.81 ± 1.66^i μmol/g (w.w.) and the “GLY, cerebral concentration” value [2, 3] was 0.83 ± 0.25^a,c μmol/g (w.w.). The “HIS, cerebral concentration” value [2, 3] was 0.068 ± 0.015^b μmol/g (w.w.), the “ILE, cerebral concentration” value [2, 3] was 0.038 ± 0.007 µmol/g (w.w.) and the “L-Cystat, cerebral concentration” value [2, 3] was 0.185 ± 0.031^b,c,i μmol/g (w.w.). For the same substance, the “LEU, cerebral concentration” value [2, 3] was 0.021 ± 0.005^a,c μmol/g (w.w.), the “LYS, cerebral concentration” value [2, 3] was 0.236 ± 0.057^b,d,h μmol/g (w.w.) and the “MET, cerebral concentration” value [2, 3] was 0.016 ± 0.005^d,j μmol/g (w.w.). For the same substance, the “ORN, cerebral concentration” value [2, 3] was 0.014 ± 0.007 µmol/g (w.w.), the “PHE, cerebral concentration” value [2, 3] was 0.031 ± 0.011^b,d μmol/g (w.w.) and the “SAH, cerebral concentration” value [2, 3] was 0.033 ± 0.008^b,c,j μmol/g (w.w.). For the same substance, the “SER, cerebral concentration” value [2, 3] was 0.88 ± 0.25^a μmol/g (w.w.), the “TAU, cerebral concentration” value [2, 3] was 4.86 ± 0.85^b μmol/g (w.w.) and the “THR, cerebral concentration” value [2, 3] was 0.92 ± 0.29^a μmol/g (w.w.). For the same substance, the “TRP, cerebral concentration” value [2, 3] was 0.030 ± 0.007^b,dg,i μmol/g (w.w.), the “TYR, cerebral concentration” value [2, 3] was 0.15 ± 0.03 µmol/g (w.w.) and the “VAL, cerebral concentration” value [2, 3] was 0.042 ± 0.011 µmol/g (w.w.). The “ALA, cerebral concentration” value [2, 4] was 0.52 ± 0.24^a,e μmol/g (w.w.), the “ARG, cerebral concentration” value [2, 4] was 0.16 ± 0.03 µmol/g (w.w.) and the “ASN, cerebral concentration” value [2, 4] was 0.13 ± 0.03^i μmol/g (w.w.). The “ASP, cerebral concentration” value [2, 4] was 2.94 ± 0.98^f,j μmol/g (w.w.), the “CITR, cerebral concentration” value [2, 4] was 0.018 ± 0.008 µmol/g (w.w.) and the “GABA, cerebral concentration” value [2, 4] was 1.60 ± 0.24^a μmol/g (w.w.). For the same substance, the “GLN, cerebral concentration” value [2, 4] was 3.66 ± 0.41 µmol/g (w.w.), the “GLU, cerebral concentration” value [2, 4] was 9.93 ± 1.56^e,i μmol/g (w.w.) and the “GLY, cerebral concentration” value [2, 4] was 0.71 ± 0.16^f,i μmol/g (w.w.). For the same substance, the “HIS, cerebral concentration” value [2, 4] was 0.055 ± 0.019 µmol/g (w.w.), the “ILE, cerebral concentration” value [2, 4] was 0.048 ± 0.017^a μmol/g (w.w.) and the “L-Cystat, cerebral concentration” value [2, 4] was 0.173 ± 0.038^b,f,i μmol/g (w.w.). For the same substance, the “LEU, cerebral concentration” value [2, 4] was 0.018 ± 0.004 µmol/g (w.w.), the “LYS, cerebral concentration” value [2, 4] was 0.32 ± 0.04^a,e,i μmol/g (w.w.) and the “MET, cerebral concentration” value [2, 4] was 0.022 ± 0.006^b,e,i μmol/g (w.w.). The “ORN, cerebral concentration” value [2, 4] was 0.011 ± 0.005 µmol/g (w.w.), the “PHE, cerebral concentration” value [2, 4] was 0.028 ± 0.010 µmol/g (w.w.) and the “SAH, cerebral concentration” value [2, 4] was 0.026 ± 0.010^f,i μmol/g (w.w.). The “SER, cerebral concentration” value [2, 4] was 0.71 ± 0.28^b μmol/g (w.w.), the “TAU, cerebral concentration” value [2, 4] was 3.80 ± 1.19 µmol/g (w.w.) and the “THR, cerebral concentration” value [2, 4] was 0.66 ± 0.23 µmol/g (w.w.). The “TRP, cerebral concentration” value [2, 4] was 0.015 ± 0.006 µmol/g (w.w.), the “TYR, cerebral concentration” value [2, 4] was 0.172 ± 0.046^b,f μmol/g (w.w.) and the “VAL, cerebral concentration” value [2, 4] was 0.057 ± 0.017 µmol/g (w.w.). For the same substance, the “ALA, cerebral concentration” value [2, 5] was 0.57 ± 0.28^a,e μmol/g (w.w.), the “ARG, cerebral concentration” value [2, 5] was 0.14 ± 0.02 µmol/g (w.w.) and the “ASN, cerebral concentration” value [2, 5] was 0.18 ± 0.02^a μmol/g (w.w.). The “ASP, cerebral concentration” value [2, 5] was 4.46 ± 0.70^a,f μmol/g (w.w.), the “CITR, cerebral concentration” value [2, 5] was 0.020 ± 0.006 µmol/g (w.w.) and the “GABA, cerebral concentration” value [2, 5] was 1.85 ± 0.65^a μmol/g (w.w.). For the same substance, the “GLN, cerebral concentration” value [2, 5] was 3.98 ± 0.34 µmol/g (w.w.), the “GLU, cerebral concentration” value [2, 5] was 13.58 ± 1.28^a μmol/g (w.w.) and the “GLY, cerebral concentration” value [2, 5] was 1.05 ± 0.13^a,f μmol/g (w.w.). The “HIS, cerebral concentration” value [2, 5] was 0.047 ± 0.021 µmol/g (w.w.), the “ILE, cerebral concentration” value [2, 5] was 0.041 ± 0.016^b μmol/g (w.w.) and the “L-Cystat, cerebral concentration” value [2, 5] was 0.26 ± 0.05^a,f μmol/g (w.w.). The “LEU, cerebral concentration” value [2, 5] was 0.024 ± 0.032^b,f μmol/g (w.w.), the “LYS, cerebral concentration” value [2, 5] was 0.179 ± 0.036 µmol/g (w.w.) and the “MET, cerebral concentration” value [2, 5] was 0.009 ± 0.004^b μmol/g (w.w.). The “ORN, cerebral concentration” value [2, 5] was 0.017 ± 0.009^a,e μmol/g (w.w.), the “PHE, cerebral concentration” value [2, 5] was 0.033 ± 0.011^b μmol/g (w.w.) and the “SAH, cerebral concentration” value [2, 5] was 0.050 ± 0.013^a μmol/g (w.w.). For the same substance, the “SER, cerebral concentration” value [2, 5] was 0.93 ± 0.27^a,e μmol/g (w.w.), the “TAU, cerebral concentration” value [2, 5] was 4.49 ± 0.43^a μmol/g (w.w.) and the “THR, cerebral concentration” value [2, 5] was 0.75 ± 0.24^a,e μmol/g (w.w.). For the same substance, the “TRP, cerebral concentration” value [2, 5] was 0.012 ± 0.007 µmol/g (w.w.), the “TYR, cerebral concentration” value [2, 5] was 0.21 ± 0.05^f μmol/g (w.w.) and the “VAL, cerebral concentration” value [2, 5] was 0.040 ± 0.016^b μmol/g (w.w.).
